Measurements reported in ChEMBL document CHEMBL5303761, “Data for DCP probe BI-3231” (2023).

Key:
[1] = biological target: 5-hydroxytryptamine receptor 1B (Homo sapiens) (UniProt P28222); assay: 5HT1B(H) Eurofins SafetyScreen44 (BI); settings: filed as antagonist, Compound concentration 10.0 uM
[2] = biological target: 5-hydroxytryptamine receptor 2A (Homo sapiens) (UniProt P28223); assay: 5HT2AH_AGON Eurofins SafetyScreen44 (BI); settings: filed as agonist, Compound concentration 10.0 uM
[3] = biological target: T1, 5-hydroxytryptamine receptor 3A (Homo sapiens) (UniProt P46098); assay: 5HT3/H Eurofins SafetyScreen44 (BI); settings: Compound concentration 10.0 uM
T1 sequence (whole entry): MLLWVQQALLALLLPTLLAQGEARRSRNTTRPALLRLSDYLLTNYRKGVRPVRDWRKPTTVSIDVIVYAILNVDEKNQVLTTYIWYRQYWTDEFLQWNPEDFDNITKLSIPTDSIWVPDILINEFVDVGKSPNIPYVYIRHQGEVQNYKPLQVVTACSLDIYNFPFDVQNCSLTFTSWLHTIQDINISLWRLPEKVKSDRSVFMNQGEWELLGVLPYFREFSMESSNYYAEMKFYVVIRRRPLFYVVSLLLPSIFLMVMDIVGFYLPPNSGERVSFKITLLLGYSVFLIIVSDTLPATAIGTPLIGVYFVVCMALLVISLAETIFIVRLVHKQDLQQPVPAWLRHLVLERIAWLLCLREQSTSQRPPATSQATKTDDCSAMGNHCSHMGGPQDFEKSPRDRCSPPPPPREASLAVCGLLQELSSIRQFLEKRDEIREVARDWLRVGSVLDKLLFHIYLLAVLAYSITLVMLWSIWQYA

[4] = biological target: Delta-type opioid receptor (Homo sapiens) (UniProt P41143); assay: DELTA2/H Eurofins SafetyScreen44 (BI); settings: Compound concentration 10.0 uM
Chain of Delta-type opioid receptor (Homo sapiens) (P41143 whole entry): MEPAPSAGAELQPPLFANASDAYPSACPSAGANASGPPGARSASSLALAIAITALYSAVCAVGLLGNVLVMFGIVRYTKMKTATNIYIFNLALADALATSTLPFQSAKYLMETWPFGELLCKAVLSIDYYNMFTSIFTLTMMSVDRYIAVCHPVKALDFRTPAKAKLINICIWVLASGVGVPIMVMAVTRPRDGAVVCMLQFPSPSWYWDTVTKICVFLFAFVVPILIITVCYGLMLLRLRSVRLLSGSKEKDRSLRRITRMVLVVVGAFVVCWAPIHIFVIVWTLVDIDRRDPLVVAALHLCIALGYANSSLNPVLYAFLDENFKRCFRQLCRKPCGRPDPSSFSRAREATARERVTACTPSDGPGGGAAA

[5] = biological target: Glucocorticoid receptor (Homo sapiens) (UniProt P04150); assay: GCORTICOID/H Eurofins SafetyScreen44 (BI); settings: Compound concentration 10.0 uM
Chain of Glucocorticoid receptor (Homo sapiens) (P04150 whole entry): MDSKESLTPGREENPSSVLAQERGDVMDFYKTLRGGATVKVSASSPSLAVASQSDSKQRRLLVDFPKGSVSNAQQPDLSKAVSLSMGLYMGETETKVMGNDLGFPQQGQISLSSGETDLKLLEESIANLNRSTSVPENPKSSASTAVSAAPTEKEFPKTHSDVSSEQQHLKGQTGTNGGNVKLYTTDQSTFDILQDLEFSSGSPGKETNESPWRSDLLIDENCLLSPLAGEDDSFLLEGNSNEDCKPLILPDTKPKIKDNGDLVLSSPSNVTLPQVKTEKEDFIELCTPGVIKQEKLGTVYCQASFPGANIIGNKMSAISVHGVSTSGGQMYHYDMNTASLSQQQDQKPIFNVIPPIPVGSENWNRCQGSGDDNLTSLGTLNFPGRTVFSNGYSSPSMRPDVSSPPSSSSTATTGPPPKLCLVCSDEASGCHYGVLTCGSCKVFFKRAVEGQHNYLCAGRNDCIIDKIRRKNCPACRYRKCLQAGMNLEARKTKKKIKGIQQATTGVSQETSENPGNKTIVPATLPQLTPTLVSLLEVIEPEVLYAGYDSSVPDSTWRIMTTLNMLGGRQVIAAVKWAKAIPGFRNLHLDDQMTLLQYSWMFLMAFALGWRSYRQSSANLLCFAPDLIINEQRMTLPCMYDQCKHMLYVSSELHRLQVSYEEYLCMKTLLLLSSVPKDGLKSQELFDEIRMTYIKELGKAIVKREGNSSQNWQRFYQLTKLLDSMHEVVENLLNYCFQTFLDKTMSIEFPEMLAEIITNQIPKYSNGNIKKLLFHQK

[6] = biological target: Histamine H2 receptor (Homo sapiens) (UniProt P25021); assay: H2/APT/HS Eurofins SafetyScreen44 (BI); settings: filed as antagonist, Compound concentration 10.0 uM
[7] = biological target: T2, Muscarinic acetylcholine receptor M1 (Homo sapiens) (UniProt P11229); assay: M1/H Eurofins SafetyScreen44 (BI); settings: Compound concentration 10.0 uM
T2 sequence (whole entry): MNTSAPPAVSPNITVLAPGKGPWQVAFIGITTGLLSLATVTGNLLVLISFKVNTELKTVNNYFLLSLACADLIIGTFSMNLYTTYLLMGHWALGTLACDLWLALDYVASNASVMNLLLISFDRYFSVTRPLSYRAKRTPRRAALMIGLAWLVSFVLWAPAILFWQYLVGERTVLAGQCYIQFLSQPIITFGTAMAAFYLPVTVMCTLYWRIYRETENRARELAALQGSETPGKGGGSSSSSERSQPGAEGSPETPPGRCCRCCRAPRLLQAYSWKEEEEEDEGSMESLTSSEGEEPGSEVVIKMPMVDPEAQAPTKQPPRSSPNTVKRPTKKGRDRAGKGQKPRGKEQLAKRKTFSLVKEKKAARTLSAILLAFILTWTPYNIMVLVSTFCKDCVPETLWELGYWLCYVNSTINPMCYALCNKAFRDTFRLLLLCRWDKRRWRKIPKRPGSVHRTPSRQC

[8] = biological target: T3, Muscarinic acetylcholine receptor M2 (Homo sapiens) (UniProt P08172); assay: M2/H Eurofins SafetyScreen44 (BI); settings: filed as antagonist, Compound concentration 10.0 uM
T3 sequence (whole entry): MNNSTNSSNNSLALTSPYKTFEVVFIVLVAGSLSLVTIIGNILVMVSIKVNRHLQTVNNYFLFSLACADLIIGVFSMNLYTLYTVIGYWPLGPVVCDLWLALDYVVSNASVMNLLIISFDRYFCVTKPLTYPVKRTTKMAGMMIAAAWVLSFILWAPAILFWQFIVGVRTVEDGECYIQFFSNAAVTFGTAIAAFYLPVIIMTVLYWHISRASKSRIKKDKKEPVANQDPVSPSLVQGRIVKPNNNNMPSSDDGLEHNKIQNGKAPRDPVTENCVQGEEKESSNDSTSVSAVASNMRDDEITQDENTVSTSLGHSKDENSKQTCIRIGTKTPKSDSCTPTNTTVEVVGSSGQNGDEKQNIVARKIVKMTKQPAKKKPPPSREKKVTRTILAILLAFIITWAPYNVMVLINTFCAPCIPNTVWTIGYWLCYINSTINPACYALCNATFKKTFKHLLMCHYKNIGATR

[9] = biological target: Mu-type opioid receptor (Homo sapiens) (UniProt P35372); assay: MU/H Eurofins SafetyScreen44 (BI); settings: Compound concentration 10.0 uM
Chain of Mu-type opioid receptor (Homo sapiens) (P35372 whole entry): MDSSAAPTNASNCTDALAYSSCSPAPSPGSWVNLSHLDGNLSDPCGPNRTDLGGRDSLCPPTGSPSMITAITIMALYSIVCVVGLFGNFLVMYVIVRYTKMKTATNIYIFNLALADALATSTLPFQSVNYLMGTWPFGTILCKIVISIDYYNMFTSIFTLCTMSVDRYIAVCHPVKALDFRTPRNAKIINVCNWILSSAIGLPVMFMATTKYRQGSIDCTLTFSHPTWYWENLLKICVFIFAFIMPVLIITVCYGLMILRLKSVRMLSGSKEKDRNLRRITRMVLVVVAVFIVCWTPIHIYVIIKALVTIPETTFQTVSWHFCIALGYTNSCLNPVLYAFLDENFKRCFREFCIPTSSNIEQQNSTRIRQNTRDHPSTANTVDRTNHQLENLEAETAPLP

[10] = biological target: voltage-gated Na+ channel (site 2) (Rattus norvegicus, UniProt F1LQQ7+O08562+O88420+O88457+P04774+P04775+P08104+P15389+P15390+Q62968); assay: NA+/SITE2/R Eurofins SafetyScreen44 (BI); assay type: protein assay; settings: rat brain, probe [3H]batrachotoxinin, compound concentration 10 uM, read-out: % Ctrl
[11] = biological target: 3',5'-cyclic-AMP phosphodiesterase 4D (Homo sapiens) (UniProt Q08499); assay: PDE4D2 Eurofins SafetyScreen44 (BI); settings: Compound concentration 10.0 uM
[12] = biological target: Vasopressin V1a receptor (Homo sapiens) (UniProt P37288); assay: V1A/HUM Eurofins SafetyScreen44 (BI); settings: Compound concentration 10.0 uM
Chain of Vasopressin V1a receptor (Homo sapiens) (P37288 whole entry, looked up): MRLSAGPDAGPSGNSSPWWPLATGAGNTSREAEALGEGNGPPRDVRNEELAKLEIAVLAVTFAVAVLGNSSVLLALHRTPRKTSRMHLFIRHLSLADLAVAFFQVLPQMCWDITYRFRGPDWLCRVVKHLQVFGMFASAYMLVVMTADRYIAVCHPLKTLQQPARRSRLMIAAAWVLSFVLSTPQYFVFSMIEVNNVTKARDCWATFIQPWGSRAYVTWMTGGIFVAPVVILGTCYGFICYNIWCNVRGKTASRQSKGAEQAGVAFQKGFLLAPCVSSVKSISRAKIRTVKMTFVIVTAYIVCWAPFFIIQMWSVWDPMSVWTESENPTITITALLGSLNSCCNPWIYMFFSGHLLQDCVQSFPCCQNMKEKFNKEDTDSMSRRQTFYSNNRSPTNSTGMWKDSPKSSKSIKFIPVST

[13] = biological target: 5-hydroxytryptamine receptor 1D (Homo sapiens) (UniProt P28221); settings: Compound concentration 10.0 uM
Chain of 5-hydroxytryptamine receptor 1D (Homo sapiens) (P28221 whole entry): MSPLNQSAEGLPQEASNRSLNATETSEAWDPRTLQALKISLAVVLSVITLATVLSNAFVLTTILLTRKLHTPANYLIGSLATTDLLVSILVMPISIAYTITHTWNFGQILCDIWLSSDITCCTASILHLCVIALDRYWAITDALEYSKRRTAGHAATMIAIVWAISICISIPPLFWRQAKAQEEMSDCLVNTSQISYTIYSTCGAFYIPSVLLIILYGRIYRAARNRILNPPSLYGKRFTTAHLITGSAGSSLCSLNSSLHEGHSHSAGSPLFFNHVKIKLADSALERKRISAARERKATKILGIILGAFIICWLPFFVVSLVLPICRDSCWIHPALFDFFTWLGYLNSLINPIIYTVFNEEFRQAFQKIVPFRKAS

[14] = biological target: 5-hydroxytryptamine receptor 2B (Homo sapiens) (UniProt P41595); settings: Compound concentration 10.0 uM
Chain of 5-hydroxytryptamine receptor 2B (Homo sapiens) (P41595 whole entry): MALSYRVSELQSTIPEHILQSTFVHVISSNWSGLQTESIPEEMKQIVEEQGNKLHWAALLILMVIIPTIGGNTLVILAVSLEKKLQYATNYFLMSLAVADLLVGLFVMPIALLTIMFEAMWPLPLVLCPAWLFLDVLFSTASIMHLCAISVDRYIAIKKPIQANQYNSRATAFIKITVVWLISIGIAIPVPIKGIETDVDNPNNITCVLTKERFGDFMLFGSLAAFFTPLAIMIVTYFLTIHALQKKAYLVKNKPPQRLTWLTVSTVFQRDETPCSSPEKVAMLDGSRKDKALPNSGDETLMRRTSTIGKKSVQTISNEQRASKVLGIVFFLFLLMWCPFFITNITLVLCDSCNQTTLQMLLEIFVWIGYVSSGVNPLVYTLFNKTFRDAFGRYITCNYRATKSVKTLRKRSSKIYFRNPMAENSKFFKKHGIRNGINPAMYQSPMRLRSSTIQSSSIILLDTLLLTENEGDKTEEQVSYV

[15] = biological target: Sodium-dependent noradrenaline transporter (Homo sapiens) (UniProt P23975); settings: Compound concentration 10.0 uM
Chain of Sodium-dependent noradrenaline transporter (Homo sapiens) (P23975 whole entry): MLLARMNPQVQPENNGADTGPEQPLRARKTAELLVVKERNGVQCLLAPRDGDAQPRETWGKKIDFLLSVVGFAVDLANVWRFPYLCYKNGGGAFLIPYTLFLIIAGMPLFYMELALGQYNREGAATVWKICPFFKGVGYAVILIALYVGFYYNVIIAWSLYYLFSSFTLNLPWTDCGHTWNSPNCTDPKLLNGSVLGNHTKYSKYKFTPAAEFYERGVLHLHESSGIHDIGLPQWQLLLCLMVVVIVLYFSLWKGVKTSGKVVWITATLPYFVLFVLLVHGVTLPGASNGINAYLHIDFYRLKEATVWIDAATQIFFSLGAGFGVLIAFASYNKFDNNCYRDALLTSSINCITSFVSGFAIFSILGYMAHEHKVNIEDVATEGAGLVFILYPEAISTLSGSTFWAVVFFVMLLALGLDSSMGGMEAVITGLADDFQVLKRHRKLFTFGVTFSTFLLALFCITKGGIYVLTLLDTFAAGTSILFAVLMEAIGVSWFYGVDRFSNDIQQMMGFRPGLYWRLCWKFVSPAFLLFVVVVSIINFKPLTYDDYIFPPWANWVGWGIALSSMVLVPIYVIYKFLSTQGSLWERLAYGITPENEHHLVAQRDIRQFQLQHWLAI

[16] = biological target: Delta-type opioid receptor (Homo sapiens) (UniProt P41143); settings: Compound concentration 10.0 uM
[17] = biological target: Histamine H3 receptor (Homo sapiens) (UniProt Q9Y5N1); settings: Compound concentration 10.0 uM
Chain of Histamine H3 receptor (Homo sapiens) (Q9Y5N1 whole entry): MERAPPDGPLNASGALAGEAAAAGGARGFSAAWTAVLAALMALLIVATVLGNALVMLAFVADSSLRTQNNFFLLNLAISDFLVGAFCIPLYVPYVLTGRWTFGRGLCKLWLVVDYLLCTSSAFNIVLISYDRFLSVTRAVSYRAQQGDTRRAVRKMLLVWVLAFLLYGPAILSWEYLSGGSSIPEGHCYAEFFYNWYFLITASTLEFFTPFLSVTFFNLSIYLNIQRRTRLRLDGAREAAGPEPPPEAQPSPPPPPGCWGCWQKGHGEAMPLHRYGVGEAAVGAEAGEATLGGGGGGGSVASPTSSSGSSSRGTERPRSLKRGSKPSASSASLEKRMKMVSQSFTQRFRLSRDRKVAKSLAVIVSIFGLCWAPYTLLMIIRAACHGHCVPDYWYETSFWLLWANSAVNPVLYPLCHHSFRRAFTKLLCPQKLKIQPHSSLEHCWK

[18] = biological target: T4, Alpha-2A adrenergic receptor (Homo sapiens) (UniProt P08913); settings: Compound concentration 10.0 uM
T4 sequence (whole entry): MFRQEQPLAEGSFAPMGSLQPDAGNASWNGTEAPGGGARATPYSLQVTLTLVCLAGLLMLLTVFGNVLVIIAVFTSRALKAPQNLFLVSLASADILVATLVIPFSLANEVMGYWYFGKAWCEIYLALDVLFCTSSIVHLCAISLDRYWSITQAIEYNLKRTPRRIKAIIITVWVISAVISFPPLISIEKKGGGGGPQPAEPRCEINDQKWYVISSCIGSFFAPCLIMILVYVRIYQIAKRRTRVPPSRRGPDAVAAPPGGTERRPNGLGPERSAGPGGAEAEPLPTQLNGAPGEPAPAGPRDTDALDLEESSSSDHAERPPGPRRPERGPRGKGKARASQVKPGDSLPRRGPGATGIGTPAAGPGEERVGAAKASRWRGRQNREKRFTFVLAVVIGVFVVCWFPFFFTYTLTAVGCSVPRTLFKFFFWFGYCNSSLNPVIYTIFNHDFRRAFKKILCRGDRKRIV

Rattus norvegicus = organism: Rattus norvegicus; settings: Compound concentration 10.0 uM

Chain of 5-hydroxytryptamine receptor 2A (Homo sapiens) (P28223 whole entry): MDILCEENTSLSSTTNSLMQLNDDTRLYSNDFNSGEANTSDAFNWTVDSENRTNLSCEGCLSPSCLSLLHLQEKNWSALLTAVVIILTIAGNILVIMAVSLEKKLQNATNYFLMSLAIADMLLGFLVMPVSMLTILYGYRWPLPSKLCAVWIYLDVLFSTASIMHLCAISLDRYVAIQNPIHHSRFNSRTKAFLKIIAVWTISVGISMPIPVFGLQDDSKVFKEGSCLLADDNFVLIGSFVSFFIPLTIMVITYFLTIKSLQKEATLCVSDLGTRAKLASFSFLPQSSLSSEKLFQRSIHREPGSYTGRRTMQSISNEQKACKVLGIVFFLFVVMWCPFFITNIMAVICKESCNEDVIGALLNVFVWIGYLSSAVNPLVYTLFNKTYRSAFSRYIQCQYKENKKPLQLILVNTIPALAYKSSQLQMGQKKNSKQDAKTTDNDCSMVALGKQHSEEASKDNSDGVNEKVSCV
Chain of 5-hydroxytryptamine receptor 1B (Homo sapiens) (P28222 whole entry): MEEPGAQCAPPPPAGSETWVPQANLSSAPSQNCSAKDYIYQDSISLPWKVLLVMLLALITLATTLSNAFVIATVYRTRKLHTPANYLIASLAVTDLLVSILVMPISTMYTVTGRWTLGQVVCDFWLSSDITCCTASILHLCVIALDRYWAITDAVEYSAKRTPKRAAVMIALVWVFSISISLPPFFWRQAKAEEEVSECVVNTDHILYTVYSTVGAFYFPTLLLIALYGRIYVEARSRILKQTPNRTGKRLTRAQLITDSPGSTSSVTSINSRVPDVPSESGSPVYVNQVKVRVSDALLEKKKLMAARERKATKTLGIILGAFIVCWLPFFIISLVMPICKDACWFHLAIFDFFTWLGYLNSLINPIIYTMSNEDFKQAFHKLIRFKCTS

| SMILES | residual activity [1] | residual activity [2] | residual activity [3] | residual activity [4] | residual activity [5] | residual activity [6] | residual activity [7] | residual activity [8] | residual activity [9] | activity at 10 µM [10] | residual activity [11] | residual activity [12] | inhibition [13] | inhibition [14] | inhibition [15] | inhibition [16] | inhibition [17] | inhibition [18] | inhibition (Rattus norvegicus) |
| --- | --- | --- | --- | --- | --- | --- | --- | --- | --- | --- | --- | --- | --- | --- | --- | --- | --- | --- | --- |
| CCn1c(=O)c(C)cn(Cc2nnc(-c3ccc(F)c(O)c3F)s2)c1=O | 93% | 84% | 106% | 95% | 96% | 105% | 99% | 106% | 87% | 73% (not active) | 68% | 100% | 6.08% | -8.82% | 3.4% | 9.87% | 0.98% | 4.94% | 23% |
| CCn1c(=O)c(C)cn(Cc2nnc(-c3ccc(F)c(OC)c3F)s2)c1=O | 103% | 101% | 98% | 103% | 88% | 107% | 100% | 113% | 102% | 88% (not active) | 64% | 103% | 15.8% | 28.5% | 3.37% | -0.06% | 11% | 16.4% | -8.73% |
